# Data: article PMC8877291, “Design and Synthesis of Arylpiperazine Serotonergic/Dopaminergic Ligands with Neuroprotective Properties” (Molecules, 2022)
# System: SH-SY5Y neuroblastoma cells
# Assay: Cytotoxicity in SH-SY5Y cells (MTT assay)
# Format: cell-based, human
# Conditions: 48 h, dose range 0.1 to 100 μM
# Protocol: Initially, the cytotoxicity of the target compounds was assessed by treating SH-SY5Y cells for 48 h with various concentrations of compounds (0.1 to 100 μM).
# SH-SY5Y neuroblastoma cells (cat. CRL-2266, ATCC) were cultured in a 1:1 mixture of Eagle’s Minimum Essential Medium (cat. 15-010-CVR, Corning) and Ham’s F12 medium (cat. 10-080-CVR, Corning). This medium was supplemented with 10% (v/v) Fetal Bovine Serum (cat. 35-079-CV, Corning), 1% (v/v) Glutamine (cat. ECB3000D, Euro Clone) and 1% (v/v) Penicillin—Streptomycin (cat.30-002-CI, Corning). Cells were cultivated at 37 °C with 5% CO2 at saturated humidity.
# Determination of cell growth was performed using the MTT assay at 48 h. On day 1, 25,000 cells/well were seeded into 96-well plates in a volume of 100 μL. On day 2, the various drug concentrations ([…]–100 μM) were added. In all the experiments, the various drug-solvents (EtOH, DMSO) were added in each control to evaluate possible solvent cytotoxicity. After the established incubation time with drugs (48 h), MTT (0.5 mg/mL) was added to each well, and after 3–4 h incubation at 37 °C, the supernatant was removed. The formazan crystals were solubilized using 100 μL of DMSO/EtOH (1:1, v/v) and the absorbance values at 570 and 630 nm were determined on the microplate reader Victor 3 (PerkinElmer Life Sciences, Waltham, MA, USA).
row,Structure (SMILES),cytotoxicity (in words)
1,"Cn1c(=O)cnn(CCCCN2CCN(c3ncccc3-c3ccncc3)CC2)c1=O [Compound 11b, 2-(4-(4-([3,4’-Bipyridin]-2-yl)piperazin-1-yl)butyl)-4-methyl-1,2,4-triazine-3,5(2H,4H)-dione]",not cytotoxic
2,"Cn1c(=O)cnn(CCCN2CCN(c3ncccc3-c3ccncc3)CC2)c1=O [Compound 11a, 2-(3-(4-([3,4’-Bipyridin]-2-yl)piperazin-1-yl)propyl)-4-methyl-1,2,4-triazine-3,5(2H,4H)-dione]",not cytotoxic
